According to US10703760B2, “Morphic forms of marizomib and uses thereof” (Celgene International II Sàrl, priority 2016, dated 2020):

Tests used:
Assay type in all cases: physicochemical
[1] = Dynamic vapor sorption (DVS) of Sample 4
Description: Prior to any testing, Sample 4 was characterized by XRPD, TGA, DSC, 1HNMR, and DVS. The results are given below in Table-8. The Corresponding figure numbers are given in the right hand column.

[2] = Thermogravimetric analysis (TGA)
Procedure: TGA data were collected on a TA Instruments Q500 TGA, equipped with a 16-position auto-sampler. The instrument was temperature calibrated using certified Alumel™ and Nickel. Typically 5-10 mg of each sample was loaded onto a pre-tared aluminum DSC pan and heated at 10° C./min from ambient temperature to 350° C. A nitrogen purge at 60 ml/min was maintained over the sample.
TG analyses were performed using a TA Instruments Q5000 IR thermogravimetric analyzer. Temperature calibration was performed using nickel and Alumel™. Each sample was placed in an aluminum pan. The sample was hermetically sealed, the lid pierced, then inserted into the TG furnace. The furnace was heated under nitrogen.

[3] = Variable temperature XRPD; settings: 25° C. to 160° C.; listed as morphic Form I
Procedure: Samples run under non-ambient conditions were mounted on a silicon wafer with heat-conducting compound. The sample was then heated to the appropriate temperature at 20° C./min and subsequently held isothermally for 1 minute before data collection was initiated.

[4] = XRPD after storage for four years at 2-8° C.
Description: Without wishing to be bound by theory, the results of FIGS. 5 and 6 are further supported by FIG. 7. […] (710).

[5] = Cocrystal screen of marizomib
Salt screen of marizomib = settings: sulfonic acids and mineral acids
Procedure: For crash cooling (CC), a solution of MRZ and coformer was prepared at elevated temperature in a given solvent mixture. The vial was capped and immediately placed in a refrigerator or freezer. For fast cooling (FC), solutions of MRZ and coformer were prepared at elevated temperatures in given solvents or solvent mixtures. The vial was capped and placed on a bench top at room temperature to quickly cool. For slow cooling (SC), a solution of MRZ and coformer was prepared at elevated temperature in a given solvent mixture. The vial was capped and left in a heating block at elevated temperature. The heater then was turned off for the sample to cool down naturally to room temperature. For slow evaporation (SE), solutions of MRZ and coformer were generated at ambient temperature in a given solvent or solvent mixture. The solutions were allowed to evaporate partially or to dryness from a loosely capped vial at ambient conditions. Slurry experiments were carried out by making saturated solutions containing excess solid. The slurries were agitated at ambient or elevated temperatures for a specified amount of time. The solids present were recovered via positive pressure filtration. Solvent assisted grinding experiments were carried out by mixing MRZ and coformer in an agate mortar and pestle. Aliquots of solvent were added and the mixture ground manually for specified amount of time. […]

C[C@@]12OC(=O)[C@]1([C@@H](O)[C@@H]1C=CCCC1)NC(=O)[C@@H]2CCCl [Sample 4, marizomib]
DVS weight change ([1]; 5-75% RH): +0.039 wt % (5-75% RH)
DVS weight change ([1]; 75-95% RH): +1.158 wt % (75-95% RH)
DVS weight change ([1]; 95-5% RH): −1.276 wt % (95-5% RH)
DVS weight change ([1]; at 5% RH): −0.035 wt % (at 5% RH)
TGA weight loss prior to decomposition [2]: negligible weight loss prior to decomp
TGA (onset, decomp.) ([2]; Sample 4 prior to testing): 168 °C (onset, decomp.)
TGA: decomposition after ([2]; as stated in cocrystal discussion): approximately 150 °C

C[C@@]12OC(=O)[C@]1([C@@H](O)[C@@H]1C=CCCC1)NC(=O)[C@@H]2CCCl [marizomib]
weight loss (TGA) ([2]; solids from 2-pyrrolidone (1:1) cocrystal experiment, from 27.1° C. to 92.0° C.): 5.0%
weight loss (TGA) ([2]; solids from Melamine (1:1) cocrystal experiment, from 30.2° C. to 104.0° C.): 10.3%
weight loss (TGA) ([2]; solids from Melamine (1:1) cocrystal experiment, from 30.2° C. to 146.0° C.): C. 21.1%
Morphic form on heating (variable temperature XRPD) [3]: stable even at elevated temperatures
XRPD spectra initially versus after storage [4]: substantially identical
Cocrystal formation ([5]; about 117 experiments, 46 coformers/counterions): cocrystal formation did not occur
XRPD Results ([5]; coformer (2-hydroxypropyl)-β-cyclodextrin (1:1), MeOH/acetone, slurry 50° C. 2 days, supernatant decanted, SE, RT): MRZ
XRPD Results ([5]; coformer (2-hydroxypropyl)-β-cyclodextrin (2:1), H2O/ACN, slurry 50° C. 2 days, slurry RT 6 days, SE, RT): MRZ
XRPD Results ([5]; coformer Acetic acid (1:2), acetone, stir, RT, 5 days, cool 2-8° C., 3 days, SE, RT): MRZ
XRPD Results ([5]; coformer Acetic acid (large excess), slurry, RT): MRZ
XRPD Results ([5]; coformer Adenine (1:1), EtOH, slurry, RT, 5 days): MRZ
XRPD Results ([5]; coformer Benzoic acid (1:5), MEK:MIBK (20:80), slurry, RT, 7 days): MRZ
XRPD Results ([5]; coformer Benzoic acid (2:1), EtOAc, SE, RT): MRZ
XRPD Results ([5]; coformer Caffeine (1:3), DMF:anisole (25:75), slurry, RT, 6 days): Caffeine
XRPD Results ([5]; coformer DL-malic acid (1:3), dioxane, slurry 60° C. O/N, stir RT 1 day, FE, RT): MRZ
XRPD Results ([5]; coformer Gentisic acid (1:1), t-BuOH, slurry, 50° C., 2 days): MRZ
XRPD Results ([5]; coformer Gentisic acid (1:5), MEK:IPA (20:80), slurry, RT, 6 days): MRZ
XRPD Results ([5]; coformer Gentisic acid (2:1), ACN, FC, 60° C. to RT): MRZ
XRPD Results ([5]; coformer Glutaric acid (1:3), EtOH, slurry, RT, 6 days): MRZ
XRPD Results ([5]; coformer Glycolic acid (1:2), acetone, SE, RT): MRZ
XRPD Results ([5]; coformer Hydantoin (1:1), 2:1 dioxane:H2O, slurry, RT): MRZ
XRPD Results ([5]; coformer Hydantoin (1:3), H2O/ACN, slurry 60° C. overnight, stir RT 1 day): MRZ
XRPD Results ([5]; coformer L-Serine (1:1), H2O/THF, stir RT 3 days, SE, RT): MRZ
XRPD Results ([5]; coformer L-Serine (1:3), H2O/MeOAc, slurry 60° C. O/N, stir RT 1 day, FE, RT): MRZ
XRPD Results ([5]; coformer L-alanine (1:1), MeOH, slurry 60° C. O/N, slurry RT 1 day): MRZ
XRPD Results ([5]; coformer L-arginine (1:1), HFIPA/dioxane, stir, RT, ~25 minutes): MRZ
XRPD Results ([5]; coformer L-ascorbic acid (1:1), IPA/MeOH at 50° C., FC to RT): MRZ
XRPD Results ([5]; coformer L-cysteine (1:1), grind ~10 minutes, EtOH/dioxane (50/50), temperature cycle RT and 50° C.): MRZ
XRPD Results ([5]; coformer L-lysine (1:1), HFIPA/THF, stir, RT, ~35 minutes): MRZ
XRPD Results ([5]; coformer L-proline (sat'd in IPA at 50° C.), added to MRZ at 50° C., temp cycle (50° C.-RT)): MRZ
XRPD Results ([5]; coformer L-proline sat'd in H2O/MeOH 50/50 v/v, slurry 50° C. 2 days, slurry RT 3 days): L-proline
XRPD Results ([5]; coformer Maleic acid (1:1), nitromethane, SC, 50° C. to RT): MRZ
XRPD Results ([5]; coformer Maleic acid (1:3), 1-PrOH, slurry, RT, 6 days): MRZ
XRPD Results ([5]; coformer Nicotinamide (1:1), ACN, FC, 70° C. to RT): MRZ
XRPD Results ([5]; coformer Orotic acid (2:1), nitromethane, slurry, 50° C., 6 days): MRZ
XRPD Results ([5]; coformer Oxalic acid (1:2), EtOH/MEK, stir, RT, 7 days): MRZ
XRPD Results ([5]; coformer Saccharin (1:1), IPA, FC, 70° C. to RT): MRZ
XRPD Results ([5]; coformer Salicylic acid (1:1), EtOAc:toluene (50:50), FC, 75° C. to RT): MRZ
XRPD Results ([5]; coformer Salicylic acid (1:3), EtOH/MIBK, stir, RT): MRZ
XRPD Results ([5]; coformer Succinic acid (1:2), MeOH/acetone, stir, RT, 5 days): MRZ
XRPD Results ([5]; coformer Thymine (1:1), MeOH/EtOAc, slurry 50° C. 2 days, slurry RT 6 days): Thymine
XRPD Results ([5]; coformer Urea (2:1), EtOAc, FC, 50° C. to RT): MRZ
Crystalline salt formation (Salt screen of marizomib): No crystalline salt of marizomib was produced
